Results taken from patent US20240300932A1, “N-PHENYLIMINE DERIVATIVE AND PREPARATION METHOD AND USE THEREOF” (Guizhou University, priority 2023, published 2024).

Experiments:
Test in all cases: Post-emergence herbicidal activity test (stem and leaf spray, pot culture)
Type in all cases: in vivo
Details in all cases: 3 weeks after spraying
Setaria viridis = test system: Setaria viridis
Outline: (§1)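 Greenhouse pot-grown weeds (loam, pH 7) sprayed post-emergence at 2- to 3-leaf stage with acetone/Tween 80 formulation plus 1.5 liters/ha methyl oleate, at 10, 5 and 2.5 g/mu. Fresh-weight growth control rated 3 weeks later on 0–5 grade scale.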

Echinochloa crusgalli = test system: Echinochloa crusgalli
Outline: as §1

Abutilon theophrasti = test system: Abutilon theophrasti
Outline: as §1

Portulaca oleracea = test system: Portulaca oleracea
Outline: as §1

Amaranthus retroflexus = test system: Amaranthus retroflexus
Outline: as §1

Trifoliumre pensL. = test system: Trifoliumre pensL.
Outline: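 Pot-grown weeds in loam (pH 7), greenhouse at 20–30 °C, sprayed once post-emergence at the 2–3-leaf stage. Compound in acetone with Tween 80 plus methyl oleate oil (1.5 L/ha), applied at 10, 5 and 2.5 g/mu by spray tower. Effect scored 3 weeks after spraying, averaged over three repeats.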

Compound	Post-emergence herbicidal activity, S. viridis (grade) (Setaria viridis; dosage 2.5 g/mu)	Post-emergence herbicidal activity, S. viridis (grade) (Setaria viridis; dosage 5 g/mu)	Post-emergence herbicidal activity, S. viridis (grade) (Setaria viridis; dosage 10 g/mu)	Post-emergence herbicidal activity, E. crusgalli (grade) (Echinochloa crusgalli; dosage 2.5 g/mu)	Post-emergence herbicidal activity, E. crusgalli (grade) (Echinochloa crusgalli; dosage 5 g/mu)	Post-emergence herbicidal activity, E. crusgalli (grade) (Echinochloa crusgalli; dosage 10 g/mu)	Post-emergence herbicidal activity, A. theophrasti (grade) (Abutilon theophrasti; dosage 2.5 g/mu)	Post-emergence herbicidal activity, A. theophrasti (grade) (Abutilon theophrasti; dosage 5 g/mu)	Post-emergence herbicidal activity, A. theophrasti (grade) (Abutilon theophrasti; dosage 10 g/mu)	Post-emergence herbicidal activity, P. oleracea (grade) (Portulaca oleracea; dosage 2.5 g/mu)	Post-emergence herbicidal activity, P. oleracea (grade) (Portulaca oleracea; dosage 5 g/mu)	Post-emergence herbicidal activity, P. oleracea (grade) (Portulaca oleracea; dosage 10 g/mu)	Post-emergence herbicidal activity, A. retroflexus (grade) (Amaranthus retroflexus; dosage 2.5 g/mu)	Post-emergence herbicidal activity, A. retroflexus (grade) (Amaranthus retroflexus; dosage 5 g/mu)	Post-emergence herbicidal activity, A. retroflexus (grade) (Amaranthus retroflexus; dosage 10 g/mu)	Post-emergence herbicidal activity, Trifoliumre pensL. (grade) (Trifoliumre pensL.; dosage 2.5 g/mu)	Post-emergence herbicidal activity, Trifoliumre pensL. (grade) (Trifoliumre pensL.; dosage 5 g/mu)	Post-emergence herbicidal activity, Trifoliumre pensL. (grade) (Trifoliumre pensL.; dosage 10 g/mu)
O=C1C2=C(CCCC2)C(=O)N1c1cc(OCc2nc(-c3ccccc3C(F)(F)F)no2)c(Cl)cc1F [Compound A18]	2 (Grade 2: the growth control rate is greater than or equal to 20% and less than 40%)	3 (Grade 3: the growth control rate is greater than or equal to 40% and less than 60%)	4 (Grade 4: the growth control rate is greater than or equal to 60% and less than 85%)	1 (Grade 1: the growth control rate is greater than or equal to 5% and less than 20%)	2 (Grade 2: the growth control rate is greater than or equal to 20% and less than 40%)	3 (Grade 3: the growth control rate is greater than or equal to 40% and less than 60%)	5 (Grade 5: the growth control rate is greater than or equal to 85%)	5 (Grade 5: the growth control rate is greater than or equal to 85%)	5 (Grade 5: the growth control rate is greater than or equal to 85%)	4 (Grade 4: the growth control rate is greater than or equal to 60% and less than 85%)	5 (Grade 5: the growth control rate is greater than or equal to 85%)	5 (Grade 5: the growth control rate is greater than or equal to 85%)	5 (Grade 5: the growth control rate is greater than or equal to 85%)	5 (Grade 5: the growth control rate is greater than or equal to 85%)	5 (Grade 5: the growth control rate is greater than or equal to 85%)	4 (Grade 4: the growth control rate is greater than or equal to 60% and less than 85%)	5 (Grade 5: the growth control rate is greater than or equal to 85%)	5 (Grade 5: the growth control rate is greater than or equal to 85%)
O=C1C2=C(CCCC2)C(=O)N1c1cc(OCc2nc(-c3cccs3)no2)c(Cl)cc1F [Compound A19]	2 (Grade 2: the growth control rate is greater than or equal to 20% and less than 40%)	3 (Grade 3: the growth control rate is greater than or equal to 40% and less than 60%)	4 (Grade 4: the growth control rate is greater than or equal to 60% and less than 85%)	1 (Grade 1: the growth control rate is greater than or equal to 5% and less than 20%)	2 (Grade 2: the growth control rate is greater than or equal to 20% and less than 40%)	3 (Grade 3: the growth control rate is greater than or equal to 40% and less than 60%)	5 (Grade 5: the growth control rate is greater than or equal to 85%)	5 (Grade 5: the growth control rate is greater than or equal to 85%)	5 (Grade 5: the growth control rate is greater than or equal to 85%)	4 (Grade 4: the growth control rate is greater than or equal to 60% and less than 85%)	5 (Grade 5: the growth control rate is greater than or equal to 85%)	5 (Grade 5: the growth control rate is greater than or equal to 85%)	5 (Grade 5: the growth control rate is greater than or equal to 85%)	5 (Grade 5: the growth control rate is greater than or equal to 85%)	5 (Grade 5: the growth control rate is greater than or equal to 85%)	4 (Grade 4: the growth control rate is greater than or equal to 60% and less than 85%)	5 (Grade 5: the growth control rate is greater than or equal to 85%)	5 (Grade 5: the growth control rate is greater than or equal to 85%)
O=C1C2=C(CCCC2)C(=O)N1c1cc(OCc2nc(-c3ccc(OC(F)(F)F)cc3)no2)c(Cl)cc1F [Compound A20]	2 (Grade 2: the growth control rate is greater than or equal to 20% and less than 40%)	3 (Grade 3: the growth control rate is greater than or equal to 40% and less than 60%)	4 (Grade 4: the growth control rate is greater than or equal to 60% and less than 85%)	1 (Grade 1: the growth control rate is greater than or equal to 5% and less than 20%)	2 (Grade 2: the growth control rate is greater than or equal to 20% and less than 40%)	3 (Grade 3: the growth control rate is greater than or equal to 40% and less than 60%)	5 (Grade 5: the growth control rate is greater than or equal to 85%)	5 (Grade 5: the growth control rate is greater than or equal to 85%)	5 (Grade 5: the growth control rate is greater than or equal to 85%)	4 (Grade 4: the growth control rate is greater than or equal to 60% and less than 85%)	5 (Grade 5: the growth control rate is greater than or equal to 85%)	5 (Grade 5: the growth control rate is greater than or equal to 85%)	5 (Grade 5: the growth control rate is greater than or equal to 85%)	5 (Grade 5: the growth control rate is greater than or equal to 85%)	5 (Grade 5: the growth control rate is greater than or equal to 85%)	4 (Grade 4: the growth control rate is greater than or equal to 60% and less than 85%)	5 (Grade 5: the growth control rate is greater than or equal to 85%)	5 (Grade 5: the growth control rate is greater than or equal to 85%)
O=C1C2=C(CCCC2)C(=O)N1c1cc(OCc2nc(-c3cc(F)ccc3Cl)no2)c(Cl)cc1F [Compound A21]	2 (Grade 2: the growth control rate is greater than or equal to 20% and less than 40%)	3 (Grade 3: the growth control rate is greater than or equal to 40% and less than 60%)	4 (Grade 4: the growth control rate is greater than or equal to 60% and less than 85%)	1 (Grade 1: the growth control rate is greater than or equal to 5% and less than 20%)	2 (Grade 2: the growth control rate is greater than or equal to 20% and less than 40%)	3 (Grade 3: the growth control rate is greater than or equal to 40% and less than 60%)	5 (Grade 5: the growth control rate is greater than or equal to 85%)	5 (Grade 5: the growth control rate is greater than or equal to 85%)	5 (Grade 5: the growth control rate is greater than or equal to 85%)	4 (Grade 4: the growth control rate is greater than or equal to 60% and less than 85%)	5 (Grade 5: the growth control rate is greater than or equal to 85%)	5 (Grade 5: the growth control rate is greater than or equal to 85%)	5 (Grade 5: the growth control rate is greater than or equal to 85%)	5 (Grade 5: the growth control rate is greater than or equal to 85%)	5 (Grade 5: the growth control rate is greater than or equal to 85%)	4 (Grade 4: the growth control rate is greater than or equal to 60% and less than 85%)	5 (Grade 5: the growth control rate is greater than or equal to 85%)	5 (Grade 5: the growth control rate is greater than or equal to 85%)
